{"source": "paper PMC7154053", "about": "“Chemical, Metabolic, and Cellular Characterization of a FtsZ Inhibitor Effective Against Burkholderia cenocepacia” (Frontiers in Microbiology, 2020)", "key": {"S. aureus ATCC 25923": {"system": "S. aureus ATCC 25923", "experiment": "MIC, 2-fold microdilution, resazurin method", "assay_type": "cell-based, Staphylococcus aureus", "conditions": "Staphylococcus aureus, ATCC25923"}, "P. aeruginosa": {"system": "P. aeruginosa", "experiment": "Checkerboard assay with efflux pump inhibitor PaβN MC-207.110", "assay_type": "cell-based, Pseudomonas aeruginosa", "description": "(§1) The microtiter plates were incubated at 37°C for 48 (for B. cenocepacia) or 24 h (for all the other strains) and growth was determined by the resazurin method (Martin et al., [2006]). A solution of resazurin sodium salt (Sigma Aldrich) was prepared at 0.01% in distilled water and filter-sterilized. Thirty microliter of resazurin solution were added to each well after 1 or 2 days of incubation at 37°C, and the microtiters were re-incubated at the same temperature for 4 h. The MIC was defined as the lowest concentration of the drug that prevented a change in color from blue to pink, which indicates bacterial growth. […] Three independent biological replicates were used for each MIC determination."}, "B. cenocepacia FCF19": {"system": "B. cenocepacia FCF19", "experiment": "Checkerboard assay with efflux pump inhibitor PaβN MC-207.110", "assay_type": "cell-based, Burkholderia cenocepacia", "conditions": "Burkholderia cenocepacia, FCF19; read-out: MIC in the presence of MC-207.110, FCF19", "description": "as §1"}, "B. cenocepacia FCF22": {"system": "B. cenocepacia FCF22", "experiment": "Checkerboard assay with efflux pump inhibitor PaβN MC-207.110", "assay_type": "cell-based, Burkholderia cenocepacia", "conditions": "Burkholderia cenocepacia, FCF22; read-out: MIC in the presence of MC-207.110, FCF22", "description": "as §1"}, "B. cenocepacia J2315": {"system": "B. cenocepacia J2315", "experiment": "Time-lapse microscopy, single-cell analysis in microfluidic device", "assay_type": "cell-based, Burkholderia cenocepacia", "description": "B. cenocepacia J2315 was cultured over-night in Middlebrook 7H9 broth, supplemented with 10% (v/v) DS enrichment (20 g dextrose, 8.5 g sodium chloride in 1 L water) and 5% (v/v) of a casamino acids solution (10 g casamino acids in 100 ml water). Cells were diluted 10-fold in the same fresh 7H9 medium, and 5 μl of the diluted cell suspension were inoculated into a custom-made microfluidic hexa-device, as previously described (Manina et al., [2019]). Silicone tubing (0.76 mm ID) was connected to each inlet and outlet ports of the hexa-device to enable medium circulation. Two 50 ml syringes were connected to the inlet tubing, and prewarmed 7H9 medium was pumped through the microfluidic device at 15 μl/min. The outlet tubing were inserted into a waste receptacle containing bleach. […] Bacteria were imaged in phase contrast, using a UPLFLN100XO2/PH3/1.30 objective (Olympus) and a high-speed sCMOS camera, with the help of an automated epifluorescence inverted microscope (DeltaVision Elite, GE Healthcare). The microscope was equipped with an environmental chamber maintained at 37°C. Images were recorded at 20-min intervals and up to 46 h. Exposure conditions were as follows: phase 50% T, 150 ms. In each experiment, 190 XY fields were imaged. The same experimental set-up was carried out twice.\nManual segmentation of individual cells and analysis of image stacks were performed using the ImageJ 1.52a software. The Selection Brush Tools was used to draw polygons corresponding to the shape of individual cells and to extract the cell planar area (μm^2). Measurements of the cell area were repeated throughout the generation time of individual cells, to calculate the growth rate by fitting an exponential curve.\nBiphasic killing represents the typical pattern of drug persistence, whereby the initial linear mortality of the population is followed by a second phase where a subpopulation of cells is able to endure inhibitory drug concentrations in the absence of genetic mutations (Van den Bergh et al., [2017]). In contrast to drug-resistant cells, which continue to replicate in the presence of the drug, drug-persistent cells either derive from pre-existing non-growing cells or slow down their growth during drug exposure, and their progeny is killed with kinetics similar to that of the initial population (Van den Bergh et al., [2017]; Balaban et al., [2019]). […] To examine the C109 killing dynamics of B. cenocepacia at the single-cell level, we carried out a time-lapse microscopy experiment, divided into several steps. Wild type B. cenocepacia J2315 cells were first seeded into a microfluidic device (Manina et al., [2019]), and perfused with prewarmed 7H9 medium for 3 h, to allow the cells to adapt to the microfluidic environment. […] Cells were then perfused with C109-free 7H9 medium for 12 h, enabling the recovery and expansion of surviving cells. […] During the time-lapse imaging, cells were monitored every 20 min for a total of 46 h. The total number of cells, the single-cell area, and the number of division and lysis events were measured during each step of the experiment."}, "B. cenocepacia": {"system": "B. cenocepacia", "experiment": "Resazurin-based assay of BcNR reaction mixtures", "assay_type": "cell-based, Burkholderia cenocepacia", "conditions": "BcNR reactions with 1 mM C109, with or without NADPH; C109 result: in the absence of NADPH", "from_the_text": "To assess whether the resulting BcNR reduction product could inhibit B. cenocepacia growth, we carried out a resazurin-based assay."}, "[1]": {"system": "CF bronchial epithelial (CFBE41o-) cell line", "set-up": "method as in Hogan et al., 2018; Costabile et al., 2020", "conditions": "CFBE41o- cells; ref Hogan et al., 2018; Costabile et al., 2020; cited from earlier work"}}, "note": "Read-outs that look alike come from different tables or passages of the source."}
{"smiles": "COC(=O)CSc1ccc2nsnc2c1[N+](=O)[O-]", "note": "[C109, methyl [(4-nitro-2,1,3-benzothiadiazol-5-yl)thio]acetate]", "values": [{"measurement": "MIC", "setting": "S. aureus ATCC 25923; LB, 24 h, read-out: MIC S. aureus 25923", "result": 4, "unit": "µg/mL"}, {"measurement": "MIC", "setting": "S. aureus ATCC 25923; Supplementary Table 1, read-out: MIC (µg/ml) S. aureus 25923", "result": 4, "unit": "µg/mL"}, {"measurement": "MIC", "setting": "P. aeruginosa; Pseudomonas aeruginosa, read-out: MIC in the presence of MC-207.110, P. aeruginosa", "result": 1, "unit": "µg/mL"}, {"measurement": "effect of combination with MC-207.110", "setting": "P. aeruginosa; checkerboard, P. aeruginosa", "result": "synergistic effect"}, {"measurement": "MIC", "setting": "B. cenocepacia FCF19", "result": 8, "unit": "µg/mL"}, {"measurement": "MIC", "setting": "B. cenocepacia FCF22", "result": 16, "unit": "µg/mL"}, {"measurement": "elongated cells that resumed normal growth during washout (possible persistent cells)", "setting": "B. cenocepacia J2315; 8 of 3,000 elongated cells formed during first exposure", "result": 0.27, "unit": "%"}, {"measurement": "cells died from lysis, first treatment", "setting": "B. cenocepacia J2315; C109 100 μg/ml (12.5X-MIC), 4 h", "result": 70, "unit": "%"}, {"measurement": "cells still able to grow with considerable filamentation, first treatment", "setting": "B. cenocepacia J2315; C109 12.5X-MIC, 4 h", "result": 3.5, "unit": "%"}, {"measurement": "cells that stopped to divide (sensitive), second treatment", "setting": "B. cenocepacia J2315; C109 12.5X-MIC, 24 h", "result": 94, "unit": "%"}, {"measurement": "decline in cell population, second treatment", "setting": "B. cenocepacia J2315; C109 12.5X-MIC, 24 h", "result": 92, "unit": "%"}, {"measurement": "cells with elongated phenotype, second treatment", "setting": "B. cenocepacia J2315; C109 12.5X-MIC, 24 h, of the total cell number", "result": "~6", "unit": "%"}, {"measurement": "filamentous cells that started again to divide during washout", "setting": "B. cenocepacia J2315; C109 washout with fresh medium", "result": 30, "unit": "%"}, {"measurement": "increase of cell area, cells dying by lysis", "setting": "B. cenocepacia J2315; first treatment", "result": 2, "unit": "fold"}, {"measurement": "increase of cell area, filamentous cells", "setting": "B. cenocepacia J2315; first treatment", "result": "up to 5 fold"}, {"measurement": "increase of cell area, elongated cells", "setting": "B. cenocepacia J2315; second treatment, 8–10 μm^2", "result": "up to 10 fold"}, {"measurement": "activity against B. cenocepacia growth", "setting": "B. cenocepacia", "result": "still active"}, {"measurement": "toxic concentration at 50% (TC50)", "setting": "[1]", "result": "about 75 μM"}]}
